Among the data in ChEMBL document CHEMBL1145144, “Structure-based design of cycloamide-urethane-derived novel inhibitors of human brain memapsin 2 (beta-secretase)” (Bioorg Med Chem Lett, 2005) are Ki values, retold here.

A word on the Ki: it is a measure of affinity in units of concentration, obtained from inhibition or displacement.

Several values for one entry are separate records, joined by “and”; a condition that tells them apart may be missing. Identical values can stand only once.

Sequence of Beta-secretase 1 (P56817 whole entry): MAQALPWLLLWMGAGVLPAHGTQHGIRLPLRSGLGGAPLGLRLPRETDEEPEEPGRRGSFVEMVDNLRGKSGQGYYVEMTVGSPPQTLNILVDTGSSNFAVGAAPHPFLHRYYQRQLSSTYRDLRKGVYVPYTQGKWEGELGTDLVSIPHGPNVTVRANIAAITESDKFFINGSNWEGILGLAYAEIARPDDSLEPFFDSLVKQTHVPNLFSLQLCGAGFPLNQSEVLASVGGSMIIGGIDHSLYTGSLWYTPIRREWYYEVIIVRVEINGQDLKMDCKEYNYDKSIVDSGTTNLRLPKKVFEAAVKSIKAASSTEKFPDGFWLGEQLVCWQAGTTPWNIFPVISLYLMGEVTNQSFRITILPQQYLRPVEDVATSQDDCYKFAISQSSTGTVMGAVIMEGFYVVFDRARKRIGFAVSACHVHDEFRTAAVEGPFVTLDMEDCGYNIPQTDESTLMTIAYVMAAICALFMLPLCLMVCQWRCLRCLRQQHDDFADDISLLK

One assay deals with T1, Beta-secretase 2 (Homo sapiens, UniProt Q9Y5Z0).
T1 sequence (Q9Y5Z0 whole entry): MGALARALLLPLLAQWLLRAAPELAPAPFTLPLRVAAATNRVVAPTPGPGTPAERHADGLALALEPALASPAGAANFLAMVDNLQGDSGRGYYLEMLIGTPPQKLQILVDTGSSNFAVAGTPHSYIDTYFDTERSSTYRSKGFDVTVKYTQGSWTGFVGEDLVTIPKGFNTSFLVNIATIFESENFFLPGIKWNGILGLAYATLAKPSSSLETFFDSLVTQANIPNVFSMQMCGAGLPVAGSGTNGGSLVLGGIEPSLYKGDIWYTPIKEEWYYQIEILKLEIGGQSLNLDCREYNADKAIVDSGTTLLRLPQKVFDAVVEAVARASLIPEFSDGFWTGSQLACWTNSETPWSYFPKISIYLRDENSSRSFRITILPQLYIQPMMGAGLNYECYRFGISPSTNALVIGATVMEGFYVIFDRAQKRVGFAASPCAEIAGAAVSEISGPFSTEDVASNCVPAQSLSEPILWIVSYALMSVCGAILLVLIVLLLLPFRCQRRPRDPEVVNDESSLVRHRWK
Description: Binding affinity for human brain memapsin 1.
`CC(C)C[C@H](NC(=O)[C@@H]1CC(=O)NCCCCCCOC(=O)N[C@@H](C(C)C)C(=O)N1)[C@@H](O)C[C@@H](C)C(=O)N[C@H](C(=O)NCc1ccccc1)C(C)C` showed an inhibition constant Ki of 4.5 nM.

Another assay has as its target Beta-secretase 1 (Homo sapiens, UniProt P56817). Description: Binding affinity for human brain memapsin 2.
As for `CC(C)C[C@H](NC(=O)[C@@H]1CC(=O)NC/C=C/CCCOC(=O)N[C@@H](C(C)C)C(=O)N1)[C@@H](O)C[C@@H](C)C(=O)N[C@H](C(=O)NCc1ccccc1)C(C)C`, the inhibition constant Ki was 14.2 nM and 31 nM.
On the same count and under the same terms, in the case of `C=CCCCOC(=O)N[C@H](C(=O)N[C@@H](CC(=O)NCC=C)C(=O)N[C@@H](CC(C)C)[C@@H](O)C[C@@H](C)C(=O)N[C@H](C(=O)NCc1ccccc1)C(C)C)C(C)C` it was 112 nM; in that of `CC(C)C[C@H](NC(=O)[C@@H]1CC(=O)NC/C=C/COC(=O)N[C@@H](C(C)C)C(=O)N1)[C@@H](O)C[C@@H](C)C(=O)N[C@H](C(=O)NCc1ccccc1)C(C)C`, 87.2 nM; in that of `CC(C)C[C@H](NC(=O)[C@@H]1CC(=O)NCCCCOC(=O)N[C@@H](C(C)C)C(=O)N1)[C@@H](O)C[C@@H](C)C(=O)N[C@H](C(=O)NCc1ccccc1)C(C)C`, 218 nM.
The compound `CC(C)C[C@H](NC(=O)[C@@H]1CC(=O)NCCCCCOC(=O)N[C@@H](C(C)C)C(=O)N1)[C@@H](O)C[C@@H](C)C(=O)N[C@H](C(=O)NCc1ccccc1)C(C)C` came in with an inhibition constant Ki of 108 nM. Compared with the last compound, the Ki is about 2-fold lower.
Still for that read-out and setting: under `CC(C)C[C@H](NC(=O)[C@@H]1CC(=O)NC/C=C/CCOC(=O)N[C@@H](C(C)C)C(=O)N1)[C@@H](O)C[C@@H](C)C(=O)N[C@H](C(=O)NCc1ccccc1)C(C)C` stands 28.4 nM; under `C=CCCOC(=O)N[C@H](C(=O)N[C@@H](CC(=O)NCC=C)C(=O)N[C@@H](CC(C)C)[C@@H](O)C[C@@H](C)C(=O)N[C@H](C(=O)NCc1ccccc1)C(C)C)C(C)C`, 61.4 nM.
